# Source: patent US12673961B2 (Agios Pharmaceuticals, Inc., priority 2022, dated 2026)
# Biological target: T1, human PAH with the R408W mutation (Homo sapiens, UniProt P00439, R408W)
# T1 construct: expressed in transfected cells
# T1 sequence (P00439 1-452 R408W): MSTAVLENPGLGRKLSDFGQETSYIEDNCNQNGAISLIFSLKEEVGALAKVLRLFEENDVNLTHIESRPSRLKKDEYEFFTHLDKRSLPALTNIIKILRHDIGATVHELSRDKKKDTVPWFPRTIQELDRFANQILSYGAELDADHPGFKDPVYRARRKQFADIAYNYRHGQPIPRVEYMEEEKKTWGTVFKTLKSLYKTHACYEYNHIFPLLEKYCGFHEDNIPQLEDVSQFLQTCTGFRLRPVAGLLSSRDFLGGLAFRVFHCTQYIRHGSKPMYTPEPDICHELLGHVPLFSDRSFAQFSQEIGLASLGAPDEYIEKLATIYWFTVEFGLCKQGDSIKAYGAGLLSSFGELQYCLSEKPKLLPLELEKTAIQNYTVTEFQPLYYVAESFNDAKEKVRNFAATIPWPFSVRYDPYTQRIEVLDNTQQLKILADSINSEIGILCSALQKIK
# Assay: Cell Based Phenylalanine Flux Assay;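 also: Ten-point dose curve from 2-fold serial dilutions, run in duplicate at 0.5% DMSO final, tracer step used 20 µM sepiapterin and 800 µM labeled phenylalanine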
# Settings: A375 cells expressing human R408W PAH; 24 hrs compound incubation; 13C-Tyrosine by LC-MS; average where tested multiple times; read-out: AC50
row,SMILES,AC50 [nM]
1,"CC(C)(O)c1nc(C(F)(F)F)c(C(=O)N2CCc3[nH]cnc3[C@H]2c2cc3c(F)cccn3n2)o1 [Example 744, (S)-(4-(4-fluoropyrazolo[1,5-a]pyridin-2-yl)-6,7-dihydro-1H-imidazo[4,5-c]pyridin-5(4H)-yl)(2-(2-hydroxypropan-2-yl)-4-(trifluoromethyl)oxazol-5-yl)methanone]",< 500
2,"Cc1nc([C@H](C)O)oc1C(=O)N1CCc2[nH]cnc2[C@@H]1c1cc2c(C)cccn2n1 [Example 751, (2-((S)-1-hydroxyethyl)-4-methyloxazol-5-yl)((R)-4-(4-methylpyrazolo[1,5-a]pyridin-2-yl)-6,7-dihydro-1H-imidazo [4,5-c]pyridin-5(4H)-yl) methanone]",> 5000
3,"Cc1nc(C(C)(C)O)oc1C(=O)N1CCc2[nH]cnc2[C@@H]1c1cc2c(C)cccn2n1 [Example 755, (R)-(2-(2-hydroxypropan-2-yl)-4-methyloxazol-5-yl)(4-(4-methylpyrazolo[1,5-a]pyridin-2-yl)-6,7-dihydro-1H-imidazo[4,5-c]pyridin-5(4H)-yl)methanone]",> 5000
4,"Cc1cccn2nc([C@H]3c4nc[nH]c4CCN3C(=O)c3cnco3)cc12 [Example 769, (R)-(4-(4-methylpyrazolo [1,5-a]pyridin-2-yl)-6,7-dihydro-1H-imidazo[4,5-c]pyridin-5(4H)-yl)(oxazol-5-yl)methanone]",> 5000
5,"O=C(c1ccnn1C(F)F)N1CCc2[nH]cnc2[C@@H]1c1cc2c(Cl)cccn2n1 [Example 783, (R)-(4-(4-chloropyrazolo [1,5-a]pyridin-2-yl)-6,7-dihydro-1H-imidazo [4,5-c]pyridin-5(4H)-yl)(1-(difluoromethyl)-1H-pyrazol-5-yl)methanone]",1000 to 5000
6,"Cc1c([C@H]2c3nc[nH]c3CCN2C(=O)c2oc(C(C)(C)O)nc2C(F)F)nn2ccccc12 [Example 787, (R)-(4-(difluoromethyl)-2-(2-hydroxypropan-2-yl)oxazol-5-yl)(4-(3-methylpyrazolo[1,5-a]pyridin-2-yl)-6,7-dihydro-1H-imidazo [4,5-c]pyridin-5(4H)-yl)methanone]",1000 to 5000
7,Cc1ccc2cc([C@@H]3c4nc[nH]c4CCN3C(=O)c3oc(C(C)(C)O)nc3C(F)F)nn2c1 [Example 804],< 500
8,"Cc1cccn2nc([C@@H]3c4nc[nH]c4CCN3C(=O)c3nnc(-c4cn(C)cn4)o3)cc12 [Example 806, (S)-(5-(1-methyl-1H-imidazol-4-yl)-1,3,4-oxadiazol-2-yl)(4-(4-methylpyrazolo[1,5-a]pyridin-2-yl)-6,7-dihydro-1H-imidazo[4,5-c]pyridin-5(4H)-yl)methanone]",500 to 1000
9,"O=C(c1nnc(-c2cnn(C3CCC3)c2)o1)N1CCc2[nH]cnc2[C@@H]1c1cc2c(F)cccn2n1 [Example 833, (R)-(5-(1-cyclobutyl-1H-pyrazol-4-yl)-1,3,4-oxadiazol-2-yl)(4-(4-fluoropyrazolo[1,5-a]pyridin-2-yl)-6,7-dihydro-1H-imidazo [4,5-c]pyridin-5(4H)-yl) methanone]",> 5000
10,"Cc1cccn2nc([C@H]3c4nc[nH]c4CCN3C(=O)c3ncnn3C)cc12 [Example 839, (R)-(1-methyl-1H-1,2,4-triazol-5-yl)(4-(4-methylpyrazolo[1,5-a]pyridin-2-yl)-6,7-dihydro-1H-imidazo[4,5-c]pyridin-5(4H)-yl)methanone]",1000 to 5000
11,"O=C(c1ccnn1C1CC1)N1CCc2[nH]cnc2[C@H]1c1cc2c(F)cccn2n1 [Example 848, (S)-(1-cyclopropyl-1H-pyrazol-5-yl)(4-(4-fluoropyrazolo[1,5-a]pyridin-2-yl)-6,7-dihydro-1H-imidazo[4,5-c]pyridin-5(4H)-yl)methanone]",< 500
12,"Cc1cccn2nc([C@@H]3c4nc[nH]c4CCN3C(=O)c3cc(C(F)F)nn3C)cc12 [Example 867, (S)-(3-(difluoromethyl)-1-methyl-1H-pyrazol-5-yl)(4-(4-methylpyrazolo[1,5-a]pyridin-2-yl)-6,7-dihydro-1H-imidazo[4,5-c]pyridin-5(4H)-yl)methanone]",< 500
13,"Cc1cccn2nc([C@H]3c4nc[nH]c4CCN3C(=O)c3nnc(C4CC4)o3)cc12 [Example 925, (R)-(5-cyclopropyl-1,3,4-oxadiazol-2-yl)(4-(4-methylpyrazolo[1,5-a]pyridin-2-yl)-6,7-dihydro-1H-imidazo[4,5-c]pyridin-5(4H)-yl)methanone]",> 5000

# Continued, values first:
row,AC50 [nM],SMILES
1,> 5000,"COc1cccn2nc([C@H]3c4nc[nH]c4CCN3C(=O)c3nnc(-c4ccccn4)o3)cc12 [Example 778, (R)-(4-(4-methoxypyrazolo [1,5-a]pyridin-2-yl)-6,7-dihydro-1H-imidazo[4,5-c]pyridin-5(4H)-yl)(5-(pyridin-2-yl)-1,3,4-oxadiazol-2-yl)methanone]"
2,< 500,"COc1ccc(-c2nnc(C(=O)N3CCc4[nH]cnc4[C@H]3c3cc4c(F)cccn4n3)o2)nc1 [Example 788, (S)-(4-(4-fluoropyrazolo[1,5-a]pyridin-2-yl)-6,7-dihydro-1H-imidazo[4,5-c]pyridin-5(4H)-yl)(5-(5-methoxypyridin-2-yl)-1,3,4-oxadiazol-2-yl)methanone]"
3,< 500,"O=C(c1nnc(-c2ncccc2F)o1)N1CCc2[nH]cnc2[C@H]1c1cc2c(F)cccn2n1 [Example 791, (S)-(4-(4-fluoropyrazolo[1,5-a]pyridin-2-yl)-6,7-dihydro-1H-imidazo[4,5-c]pyridin-5(4H)-yl)(5-(3-fluoropyridin-2-yl)-1,3,4-oxadiazol-2-yl) methanone]"
4,> 5000,"O=C(c1nnc(-c2cnn(C(F)F)c2)o1)N1CCc2[nH]cnc2[C@@H]1c1cc2c(F)cccn2n1 [Example 797, (R)-(5-(1-(difluoromethyl)-1H-pyrazol-4-yl)-1,3,4-oxadiazol-2-yl)(4-(4-fluoropyrazolo[1,5-a]pyridin-2-yl)-6,7-dihydro-1H-imidazo[4,5-c]pyridin-5(4H)-yl)methanone]"
5,> 5000,"Cc1cccc2cc([C@H]3c4nc[nH]c4CCN3C(=O)c3nnc(-c4ccccn4)o3)nn12 [Example 799, (R)-(4-(7-methylpyrazolo [1,5-a]pyridin-2-yl)-6,7-dihydro-1H-imidazo[4,5-c]pyridin-5(4H)-yl)(5-(pyridin-2-yl)-1,3,4-oxadiazol-2-yl) methanone]"
6,500 to 1000,"Cc1cccc2cc([C@@H]3c4nc[nH]c4CCN3C(=O)c3nnc(-c4cnn(C)c4)o3)nn12 [Example 800, (S)-(5-(1-methyl-1H-pyrazol-4-yl)-1,3,4-oxadiazol-2-yl)(4-(7-methylpyrazolo[1,5-a]pyridin-2-yl)-6,7-dihydro-1H-imidazo[4,5-c]pyridin-5(4H)-yl)methanone]"
7,< 500,"Cc1cccc2cc([C@@H]3c4nc[nH]c4CCN3C(=O)c3nnc(-c4ccn(C)n4)o3)nn12 [Example 802, (S)-(5-(1-methyl-1H-pyrazol-3-yl)-1,3,4-oxadiazol-2-yl)(4-(7-methylpyrazolo[1,5-a]pyridin-2-yl)-6,7-dihydro-1H-imidazo[4,5-c]pyridin-5(4H)-yl)methanone]"
8,< 500,"O=C(c1nnc(-c2ccccn2)o1)N1CCc2[nH]cnc2[C@H]1c1cc2c(C(F)(F)F)cccn2n1 [Example 826, (S)-(5-(pyridin-2-yl)-1,3,4-oxadiazol-2-yl)(4-(4-(trifluoromethyl)pyrazolo [1,5-a]pyridin-2-yl)-6,7-dihydro-1H-imidazo[4,5-c]pyridin-5(4H)-yl)methanone]"
9,> 5000,"O=C(c1nnc(-c2ccccn2)o1)N1CCc2[nH]cnc2[C@@H]1c1cc2c(C(F)(F)F)cccn2n1 [Example 827, (R)-(5-(pyridin-2-yl)-1,3,4-oxadiazol-2-yl)(4-(4-(trifluoromethyl)pyrazolo [1,5-a]pyridin-2-yl)-6,7-dihydro-1H-imidazo[4,5-c]pyridin-5(4H)-yl)methanone]"
10,> 5000,"Cc1cccn2nc([C@H]3c4nc[nH]c4CCN3C(=O)c3nnc(-c4ccc(F)cn4)o3)cc12 [Example 874, (R)-(5-(5-fluoropyridin-2-yl)-1,3,4-oxadiazol-2-yl)(4-(4-methylpyrazolo[1,5-a]pyridin-2-yl)-6,7-dihydro-1H-imidazo[4,5-c]pyridin-5(4H)-yl)methanone]"
11,< 500,"Cc1cc(-c2nnc(C(=O)N3CCc4[nH]cnc4[C@H]3c3cc4c(F)cccn4n3)o2)nn1C [Example 883, (S)-(5-(1,5-dimethyl-1H-pyrazol-3-yl)-1,3,4-oxadiazol-2-yl)(4-(4-fluoropyrazolo[1,5-a]pyridin-2-yl)-6,7-dihydro-1H-imidazo[4,5-c]pyridin-5(4H)-yl)methanone]"
12,< 500,"Cc1cccn2nc([C@@H]3c4nc[nH]c4CCN3C(=O)c3nnc(-c4cccnc4)o3)cc12 [Example 894, (S)-(4-(4-methylpyrazolo [1,5-a]pyridin-2-yl)-6,7-dihydro-1H-imidazo[4,5-c]pyridin-5(4H)-yl)(5-(pyridin-3-yl)-1,3,4-oxadiazol-2-yl) methanone]"
13,< 500,"Cc1cccc2cc([C@@H]3c4nc[nH]c4CCN3C(=O)c3nnc(-c4ncccc4F)o3)nn12 [Example 912, (S)-(5-(3-fluoropyridin-2-yl)-1,3,4-oxadiazol-2-yl)(4-(7-methylpyrazolo[1,5-a]pyridin-2-yl)-6,7-dihydro-1H-imidazo[4,5-c]pyridin-5(4H)-yl)methanone]"
14,> 5000,"Cc1cccc2cc([C@H]3c4nc[nH]c4CCN3C(=O)c3nnc(-c4cnn(C(F)F)c4)o3)nn12 [Example 915, (R)-(5-(1-(difluoromethyl)-1H-pyrazol-4-yl)-1,3,4-oxadiazol-2-yl)(4-(7-methylpyrazolo[1,5-a]pyridin-2-yl)-6,7-dihydro-1H-imidazo[4,5-c]pyridin-5(4H)-yl)methanone]"
